Reference: patent US10017554B2, “Neuropeptide Y-derived peptides” (University of Copenhagen, priority 2013, dated 2018)

Tested on: hippocampal neurons
Experiment: Neurite outgrowth in cultures of rat hippocampal neurons, embryonic day 19, 24 h
Assay type: cell-based
Conditions: for neurite outgrowth / neuritogenic effect (in words): E19 prenatal rat hippocampal cultures; for Neuritogenic effect 3 μM NPY fragment (% of control): 3 μM peptide
Description: When pharmacological inhibitors or antagonist are applied these are added to cultures 10 min prior to peptide addition. When soluble immunoglobulin modules are used, these are preincubated with peptide solution for 10 min before addition of the mix to the cultures. To knock down NCAM expression, the neurons were transfected with a p-GFP—V-RS vector that encodes short-hairpin RNA targeting NCAM (OriGene, Rockville, Md., USA) using a nucleofector device and a Rat Neuron Nucleofector kit (Amaxa, Gaithersburg, Md., USA). NCAM knock-out mice (C57BI/6JZtm) were a kind gift from prof. Herbert Hildebrandt (Hannover Medical School) and were created as previous described (Cremer et al., 1994). The neurons were fixed, immunostained, and micrographs were recorded and evaluated as previously described (Rønn et al., 2000; Nielsen et al., 2009). Cf. FIGS. 3-9
Neurite outgrowth in cultures of hippocampal neurons from wistar rats, embryonic stage day 19, incubated for 24 hours (37° C., 5% CO2) in supplemented Neurobasal medium with NPY fragments added; effect compared to un-stimulated controls (set to 100%). Values are mean normalized to un-stimulated controls±standard error of mean (SEM). *P<0.05, […], […], Student's t-test versus un-stimulated control.

[1] = un-stimulated controls set to 100%, mean ± SEM

Row | Sequence | neurite outgrowth / neuritogenic effect (in words) | Neuritogenic effect 1 μM NPY fragment (% of control) (1 μM peptide, un-stimulated controls set to 100%, mean ± SEM) | Neuritogenic effect 3 μM NPY fragment (% of control) [1]
1 | SALRHYINLITRQR (listed as Homo sapiens) [NPY22-35] | does not |  | 
2 | PAEDMARYYSALRHYINLITRQR (listed as Homo sapiens) [NPY13-35] |  | 164.2 ± 7.2 % of control | 275.8 ± 31.2 % of control
3 | ALRHYINLITRQRA (listed as Homo sapiens) [NPY23-36 ala36] |  |  | 91.7 (n = 1) % of control
4 | RQRTILNIYHRLASYYRAMDEAPADEGPNDPKS (listed as Homo sapiens) [NPY3-35 reversed sequence, reference compound] | did not induce the same neuritogenic effects |  | 
5 | YSALRHYINLITRQR (listed as Homo sapiens) [NPY21-35] | induce neurite outgrowth |  | 266.4 ± 26.6 % of control
